# Experiments:
# RAW264.7 cells = assay: Morphology and number of activated cells in LPS-induced RAW264.7 macrophage; type: cell-based; conditions: LPS 1 μg/ml + P7C3 1 μM
# Protocol: FIGS. 3A-3E show morphology and number of activated cells in LPS-induced RAW264.7 macrophage in vitro. RAW264.7 cells were cultured in complete medium (FIG. 3A) or contained with P7C3 (FIG. 3B, 1 μM), LPS (FIG. 3C, 1 μg/ml), and LPS+P7C3 (FIG. 3D) for […]. The photo was taken under inverted microscopy (Rebel, ECHO) at 20× mag. The elongated and pseudopod shape of cells were considered as activated (yellow star), but the small and round shape of cells was considered as inactivated (yellow arrow). […] The statistical analysis was performed using two-way ANOVA with Tukey's multiple comparisons test in GraphPad Prism 8.4.3, and p≤0.05 was considered statistically significant.
# NF-κB = assay: Luciferase assay in TNF-α inflamed C2C12/NF-κB reporter cells; type: cell-based, mouse; conditions: 100 and 500 nM, and 1 μM; 24 hours; 10 ng/mL TNF-α; vs DMSO+TNF-α
# Protocol: Cell culture and Luciferase assay. The C2C12/NF-κB reporter cells were grown in DMEM supplemented with 10% FBS and 1% penicillin/streptomycin. Puromycin selection of the cells was performed by adding 2 μg/mL to the media, and the C2C12 cells with the NF-κB reporter gene were selected for further culturing. Cells were plated at 40,000 cells per well for the initial seeding density using a 24-well format. To induce inflammation, TNF-α was added at a concentration of 10 ng/mL, and simultaneously, the cells were treated with the vehicle control (DMSO or blank NPs), P7C3 solution, and P7C3 NPs. […] After 24 hours, the luciferase assay was conducted per manufacturer protocol (Promega Luciferase Assay System, USA). Using a Synergy H1 Hybrid Multi-Mode Reader, the luminescence of the cell lysate in the opaque 96-well plate was measured. Protein in the cell lysates was measured using a Pierce™ 660 nm protein assay. The luciferase activity was calculated after normalization with protein concentration.
# db/db mice = assay: Skeletal muscle histology, TEM, SDH staining and mtDNA copy number in db/db mice; type: in vivo
# Protocol: Haematoxylin and eosin staining. The tibialis anterior (TA) muscle was dissected from the mice, and embedded in optimal cutting temperature (OCT), frozen in isopentane chilled in liquid nitrogen and stored at […]. […] Images were obtained at ×10 and ×20 magnifications with the Olympus IX73 inverted microscope and were quantified using CellSens Standard software (Olympus Soft Imaging Solution, USA).
# Transmission electron microscopy. The EDL muscles were fixed with 2.5% glutaraldehyde in 0.1 M sodium phosphate buffer for 2 h at RT, and overnight at 4° C., followed by washing in buffer and fixation with 1% osmium tetroxide in buffer for 2 h at 4° C. After rinsing in buffer, the samples were then dehydrated in ethanol and acetone at RT and infiltrated in acetone:pure resin (Embed812) mix in vacuum with desiccant for 1 h and in pure resin for 4 h and embedded in the embedding mix. Polymerization of the embedding mix was carried out overnight at 70° C. in the embedding moulds. Semithin (1 μm) and ultrathin (70 nm) sections were cut using a Reichert Ultracut microtome machine. The sections were then stained with 2% uranyl acetate and contrasted with lead citrate as per standard protocol. Images were taken at ×15,000, ×30,000, and ×50,000 magnifications with a JOEL1400 transmission electron microscope for the analysis of myofibre diameter and the mitochondrial area.
# Mitochondrial DNA (mtDNA) copy number. Total DNA was extracted from gastrocnemius (GAS) muscle using DNeasy Blood and Tissue kit (Qiagen, Md., USA) according to the manufacturer's protocol. The quantitative real-time PCR (qPCR) analysis of the mtDNA/nDNA was performed using iTaq Universal SYBR green supermix (Bio-Rad Laboratories, CA, USA). The mouse 16S was used as the mitochondrial gene and HK2 was used as the nuclear gene to obtain the mitochondrial copy number.
# Succinate dehydrogenase staining. The 10 μm thick transverse cryosections of TA muscles were cut at the mid-belly region using Leica CM 1860 AgProtect cryostat machine. Briefly, the tissue sections were air-dried for 45 minutes, and incubated in 50 mM sodium succinate dibasic hexahydrate and 1.25 mM nitroblue tetrazolium in 0.1 M phosphate buffer (Sigma-Aldrich, MO, USA) for 30 min. The reaction was stopped washing in deionized water, and the sections were dehydrated in a series of graded ethanol and cleared using xylene. The sections were then mounted with DPX mountant, and the images were captured at ×20 magnification of the Olympus IX73 inverted microscope using CellSens Standard software (Olympus Soft Imaging Solution, USA) and the succinate dehydrogenase (SDH) positive myofibres were quantified with ImageJ software.
# db/db hearts = assay: Ex vivo ischemia reperfusion (Langendorff) in db/db hearts; parameters: species or system mice
# Protocol: Ex vivo ischemia reperfusion protocol. Mice were injected with heparin (360 USP units, Sigma-Aldrich, MO, USA) and euthanized with Somnasol™ (pentobarbital, 50 mg/kg i.p. body weight). Hearts were then excised and mounted on to the Langendorff apparatus immediately and perfused with Krebs-Hanseleit buffer containing (in mM): 119 NaCl, 25 NaHCO3, 4 KCl, 1 MgCl2, 1.8 CaCl2), 1 MgCl2, 10 glucose and 2 Sodium pyruvate, pH 7.4, that was constantly bubbled with carbogen gas and maintained at 37° C. as described previously. Perfusion was maintained at a constant flow of ˜2.2 ml/min. Hearts were stabilized for 30 min before proceeding to the ischemic phase. Hearts that underwent P7C3 (3 μM) treatment during the Langendorff procedure were allowed to stabilize for 10 mins then a 20 min perfusion with P7C3 (3 μM) (within Krebs-Hanseleit buffer) as pre-ischemic dosing. Cardiac ischemia was induced by the pause in Krebs-Hanseleit buffer perfusion for 45 min. Reperfusion was induced with the induction of Krebs-Hanseleit buffer at a constant flow of ˜2.2 ml/min for 2 hours. […] Image J software was utilized to quantify the ischemic areas for several sections per heart, which were then averaged and divided by the total area of the heart section and multiplied by a factor of ×100(%) to determine the overall damage percentage per heart. […]
# [1] = tibialis anterior, H&E, vs db-Veh
smiles,measurement,setting,value
"OC(CNc1ccccc1)Cn1c2ccc(Br)cc2c2cc(Br)ccc21 (centres unmarked) [P7C3, 3,6-Dibromo-a-[(phenylamino)methyl]-9H-carbazole-9-ethanol]",number of activated RAW264.7 cells,RAW264.7 cells; vs LPS,significantly decreased
same,non-activated RAW264.7 cells,RAW264.7 cells; vs LPS group,significantly higher
same,NF-κB activity (luciferase),NF-κB,significant decrease
same,SDH positive myofibres,"db/db mice; TA muscle, 4 weeks",significantly improved
same,mitochondria morphology and function,"db/db mice; TEM, db/db",improved
same,myofibre diameter of the extensor digitorum longus muscle,"db/db mice; TEM, vs db-Veh",increase
same,16S expression (mtDNA),"db/db mice; gastrocnemius, vs db-Veh",significantly decreased
same,medium and larger sized myofibres cross-sectional areas,db/db mice; [1],increase
same,small myofibres cross-sectional areas (0-1500 μm^2),db/db mice; [1],significant decrease
same,cardiac effluent Troponin I levels,db/db hearts; 30 and 120 minutes post-ischemia,significant decrease
same,infarct size,db/db hearts; P7C3 3 μM prior to and following (2 hour reperfusion) ischemia,18%
